Experimental data taken from patent US12208088B2 (Genentech, Inc., priority 2018, dated 2025).

The compounds below were run against HPK1 (Homo sapiens (Human), UniProt Q92918) (assay: HPK1 Lantha binding assay ("Lanth")). Details: binding assays; Morrison Ki fit.
Description: Example B2: HPK1 Lantha Binding Assay (“Lanth”)
Procedure: I. Compound Dilution:
The compounds to be tested were diluted by preparing 12.5 uL/well of 5 mM compound (100×) in columns 2 and 13 and 10 ul/well of DMSO in columns 3-12, 14-23, and wells A1-H1 and I24-P24 of the compound plate using a Bravo liquid handling platform. For the reference compound, the top concentration was 1 mM. To the plate was added 10 ul 2 mM staurosporine in wells J1-P1 and A24-H24. A 11 point 5-fold compound serial dilution was performed using the Bravo liquid handling platform. From the plate were transferred 2.5 ul of the solutions from column 2 and column 13 to the 10 ul of DMSO in columns 3 and 14 & so on. The compound plate was centrifuged at 2500 rpm for 1 min. From the compound plate was transferred 80 nl of the compounds into an assay plate using the Echo liquid handler system. One compound plate makes two assay plates. Each assay plate is sealed and stored in an N2 cabinet.
The following assay concentrations and times were used: 2 nM HPK1, 2 nM Eu-Anti-GST Ab, and 15 nM Tracer222, with 60 min incubation time.
III. HPK Lantha Binding Assay:
For the binding assay, 4 ul 2×HPK1 and Eu-anti-GST antibody were added to each well of the assay plate using a Multidrop reagent dispenser. The solutions were incubated in a 23 C incubator for 1 h. To each well of the assay plate was added 4 ul 2× Tracer-222 using a Multidrop reagent dispenser. The solutions were again incubated in a 23 C incubator for 1 h. The results of the assay were read using an Envision plate reader with the following parameters: TR_FRET, 340 ex/615 and 665em; 100 usec Delay; and 200 usec integration.
Compound Ki was analyzed using Morrison ki fit model in XL-fit • a. fit=(1−((((E+x)+(Ki*(1+(S/Kd))))−(((((E+x)+(Ki*(1+(S/Kd))))^2)−((4*E)*x))^0.5))/(2*E))) • res=(y−fit) • b. Parameters: • E=enzyme concentration • S=Tracer222 concentration, Kd=Tracer222 Kd • All measurements reported using the same units (uM)
Exemplary compounds were tested in the binding assays.

HPK1, sequence (Q92918 1-346 limits assumed): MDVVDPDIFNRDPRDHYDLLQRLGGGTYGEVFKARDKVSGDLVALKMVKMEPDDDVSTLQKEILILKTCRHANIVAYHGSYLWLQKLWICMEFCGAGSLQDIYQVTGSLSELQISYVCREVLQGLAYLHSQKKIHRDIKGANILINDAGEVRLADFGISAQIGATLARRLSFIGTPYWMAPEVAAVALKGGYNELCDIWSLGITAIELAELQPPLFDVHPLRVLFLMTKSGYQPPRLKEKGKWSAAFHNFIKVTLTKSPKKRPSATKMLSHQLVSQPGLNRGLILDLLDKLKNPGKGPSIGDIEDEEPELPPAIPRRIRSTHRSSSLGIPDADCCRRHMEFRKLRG

Row | SMILES | Ki [nM]
1 | CS(=O)(=O)c1cccc(-c2cnc3c(c2Cl)C2(CC=CC2)CN3)c1 [Compound 183] | 30.3
2 | CN(C)C(=O)C1(c2cccc(-c3cnc4c(c3Cl)C3(CC=CC3)CN4)c2)CC1 [Compound 263, 1-(3-(4′-Chloro-1′,2′-dihydrospiro[cyclopentane-1,3′-pyrrolo[2,3-b]pyridin]-3-en-5′-yl)phenyl)-N,N-dimethylcyclopropane-1-carboxamide] | 283
3 | CN1CCN(c2cc(Cl)cc3c(-c4cnc5c(c4)C4(CC4)CN5)c[nH]c23)C(=O)C1 [Compound 310, 1-(5-Chloro-3-(1′,2′-dihydrospiro[cyclopropane-1,3′-pyrrolo[2,3-b]pyridin]-5′-yl)-1H-indol-7-yl)-4-methylpiperazin-2-one] | 10.6
4 | O=S1(=O)CCCN1c1ccc(-c2cnc3c(c2Cl)C2(CC=CC2)CN3)cc1 [Compound 208, 2-(4-(4′-Chloro-1′,2′-dihydrospiro[cyclopentane-1,3′-pyrrolo[2,3-b]pyridin]-3-en-5′-yl)phenyl)isothiazolidine 1,1-dioxide] | 201
5 | Nc1cc(-c2cnc3c(c2)C2(CC2)CN3)nc(N2CCOC2=O)c1 [Compound 292, 3-(4-amino-6-(1′,2′-dihydrospiro[cyclopropane-1,3′-pyrrolo[2,3-b]pyridin]-5′-yl)pyridin-2-yl)oxazolidin-2-one] | 127
6 | CN(C)C(=O)c1c(N)ccc(-c2cnc3c(c2Cl)[C@]2(CC[C@@H](n4cncn4)C2)CN3)c1F [Compound 85c, 6-Amino-3-((1R,3R)-4′-chloro-3-(1H-1,2,4-triazol-1-yl)-1′,2′-dihydrospiro[cyclopentane-1,3′-pyrrolo[2,3-b]pyridin]-5′-yl)-2-fluoro-N,N-dimethylbenzamide] | 149
7 | CN(C)C(=O)c1c(N)ccc(-c2cnc3c(c2Cl)C2(CCCCC2)CN3)c1F [Compound 200, 6-Amino-3-(4′-chloro-1′,2′-dihydrospiro[cyclohexane-1,3′-pyrrolo[2,3-b]pyridin]-5′-yl)-2-fluoro-N,N-dimethylbenzamide] | 4.76
8 | N#Cc1cc2c(-c3cnc4c(c3)C3(CC3)CN4)c[nH]c2cc1F [Compound 74] | 31
9 | Clc1c(-c2ccc3[nH]nnc3c2)cnc2c1C1(CC=CC1)CN2 [Compound 276, 5′-(1H-Benzo[d][1,2,3]triazol-5-yl)-4′-chloro-1′,2′-dihydrospiro[cyclopentane-1,3′-pyrrolo[2,3-b]pyridin]-3-ene] | 252
10 | Cn1cc(Nc2ccc3c(-c4cnc5c(c4)C4(CC4)CN5)c[nH]c3c2)cn1 [Compound 345, 3-(1′,2′-Dihydrospiro[cyclopropane-1,3′-pyrrolo[2,3-b]pyridin]-5′-yl)-N-(1-methyl-1H-pyrazol-4-yl)-1H-indol-6-amine] | 94
11 | O=C(c1cccc(-c2cnc3c(c2Cl)C2(CC2)CN3)c1F)N1CCNCC1 [Compound 48, (3-(4′-Chloro-1′,2′-dihydrospiro[cyclopropane-1,3′-pyrrolo[2,3-b]pyridin]-5′-yl)-2-fluorophenyl)(piperazin-1-yl)methanone] | 151
12 | NC(=O)C1(c2cccc(-c3cnc4c(c3Cl)C3(CC=CC3)CN4)c2)CC1 [Compound 236, 1-(3-(4′-Chloro-1′,2′-dihydrospiro[cyclopentane-1,3′-pyrrolo[2,3-b]pyridin]-3-en-5′-yl)phenyl)cyclopropane-1-carboxamide] | 33.2
13 | CN(C)C(=O)c1c(N)ccc(-c2cnc3c(c2Cl)[C@]2(CC[C@](O)(Cn4cncn4)C2)CN3)c1F (single isomer, unassigned) [Compound 116c] | 140
14 | CN(Cc1cnn(C2CCNC2)c1)C(=O)c1cccc(-c2cnc3c(c2Cl)C2(CC=CC2)CN3)c1F (centres unmarked) [Compound 260, 3-(4′-Chloro-1′,2′-dihydrospiro[cyclopentane-1,3′-pyrrolo[2,3-b]pyridin]-3-en-5′-yl)-2-fluoro-N-methyl-N-((1-(pyrrolidin-3-yl)-1H-pyrazol-4-yl)methyl)benzamide] | 38
15 | CN(C)C(=O)c1cc(-c2cnc3c(c2)C2(CCC2)CN3)ccc1N [Compound 4, 2-Amino-5-(1′,2′-dihydrospiro[cyclobutane-1,3′-pyrrolo[2,3-b]pyridin]-5′-yl)-N,N-dimethylbenzamide] | 71.7
16 | CN(C)C(=O)c1c(N)ccc(-c2cnc3c(c2Cl)[C@]2(CN3)C[C@H]2CO)c1F (single isomer, unassigned) [Compound 39d] | 18.7
17 | N#Cc1cccc(-c2cnc3c(c2Cl)C2(CC=CC2)CN3)c1 [Compound 190, 3-(4′-Chloro-1′,2′-dihydrospiro[cyclopentane-1,3′-pyrrolo[2,3-b]pyridin]-3-en-5′-yl)benzonitrile] | 359

Second part, the compound after the results:

Row | Ki [nM] | SMILES
18 | 18.5 | CN(C)C(=O)c1c(N)ccc(-c2cnc3c(c2Cl)[C@]2(CC[C@H](n4cccn4)C2)CN3)c1F (relative stereo) [Compound 126a, 6-Amino-3-((1R,3S)-4′-chloro-3-(1H-pyrazol-1-yl)-1′,2′-dihydrospiro[cyclopentane-1,3′-pyrrolo[2,3-b]pyridin]-5′-yl)-2-fluoro-N,N-dimethylbenzamide]
19 | 63.1 | CC[C@@H]1C[C@@]12CNc1ncc(-c3ccc(N)c(C(=O)N(C)C)c3F)cc12 (single isomer, unassigned) [Compound 243c]
20 | 5.2 | Cn1cc(C2CCCCN2C(=O)c2c(N)ccc(-c3cnc4c(c3Cl)[C@]3(CC[C@H](O)CC3)CN4)c2F)cn1 (single isomer, unassigned) [Compound 254a]
21 | 381 | CN(C)C(=O)c1c(N)ccc(-c2cnc3c(c2Cl)[C@]2(CC[C@H](N4CCCC4)C2)CN3)c1F (relative stereo) [Compound 121a, 6-Amino-3-((1R,3S)-4′-chloro-3-(pyrrolidin-1-yl)-1′,2′-dihydrospiro[cyclopentane-1,3′-pyrrolo[2,3-b]pyridin]-5′-yl)-2-fluoro-N,N-dimethylbenzamide]
22 | 2.08 | CN(C)C(=O)c1c(N)ccc(-c2cnc3c(c2Cl)[C@]2(CC[C@](C)(C(N)=O)C2)CN3)c1F (relative stereo) [Compound 132a, (1R,3S)-5′-(4-Amino-3-(dimethylcarbamoyl)-2-fluorophenyl)-4′-chloro-3-methyl-1′,2′-dihydrospiro[cyclopentane-1,3′-pyrrolo[2,3-b]pyridine]-3-carboxamide]
23 | 23.1 | Cn1cc(C2CCCCN2C(=O)c2c(N)ccc(-c3cnc4c(c3)[C@]3(CC[C@H](O)CC3)CN4)c2F)cn1 (single isomer, unassigned) [Compound 253a]
24 | 3.3 | CC[C@H]1C[C@@]12CNc1ncc(-c3ccc(N)c(C(=O)N(C)C)c3F)c(Cl)c12 (relative stereo) [Compound 150a, 6-Amino-3-((1R,2S)-4′-chloro-2-ethyl-1′,2′-dihydrospiro[cyclopropane-1,3′-pyrrolo[2,3-b]pyridin]-5′-yl)-2-fluoro-N,N-dimethylbenzamide]
25 | 67.9 | CCC[C@@H]1C[C@@]12CNc1ncc(-c3ccc(N)c(C(=O)N(C)C)c3F)cc12 (single isomer, unassigned) [Compound 217c]
26 | 42.2 | C[C@@H]1Nc2ncc(-c3ccc(N)c(C(=O)N(C)C)c3F)cc2C12CC2 (single isomer, unassigned) [Compound 128b]
